In patent publication US11717503B2 (priority 2020, dated 2023):
Several values for one entry are separate records, joined by “and”; a condition that tells them apart may be missing. Identical values can stand only once.

How the values were obtained:
Design in all cases: species or system C57BL/6 mice
[1] = tested on: H7N9 avian influenza virus; details: mouse, in vivo
[2] = tested on: H7N9 avian influenza virus; details: mouse, in vivo, po
IL-1β = details: mouse, in vivo, po
[3] = tested on: H7N9 avian influenza virus; details: mouse, in vivo; remark: listed apart in the source
IFN-γ = details: mouse, in vivo

Row | Structure (SMILES) | Effect on weight loss caused by H7N9 infection (in words) [1] | Mortality [2] | Number of survivals 15 days post infection [2] | Survival rate [2] | IL-1β content in lung homogenate (IL-1β) | Effect on proliferation of influenza virus in the lungs (in words) [3] | Virus content in the lungs (virus titer) ([3]; po) | IFN-γ level vs control group (in words) (IFN-γ) | IFN-γ content in lung homogenate (IFN-γ; po)
1 | NCCCC[C@H](N)C(=O)O [Lysine, lysine] | alleviated the weight loss | 90% | 1 | 10% |  |  |  |  | 
2 | CC(C)[C@H](N)C(=O)O [Valine, valine] | alleviated the weight loss | 60% | 4 | 40% | 691.546 ± 125.531 pg/mL and 512.836 ± 104.971 pg/mL | significantly reduce the proliferation | 4.168 ± 0.614 log10EID50/ml | significantly higher | 121.927 ± 10.241 pg/mL and 108.583 ± 10.700 pg/mL
3 | CC[C@H](C)[C@H](N)C(=O)O [Isoleucine, isoleucine] | did not improve the weight loss | 100% | 0 | 0% |  |  |  |  | 
